Test results reported in PMC8618058, “A Phenylfurocoumarin Derivative Reverses ABCG2-Mediated Multidrug Resistance In Vitro and In Vivo” (International Journal of Molecular Sciences, 2021).

Target: T1, ABCG2 (Homo sapiens, UniProt Q9UNQ0)
T1 construct: total membranes of ABCG2-expressing High Five insect cells
T1 sequence (Q9UNQ0 1-655): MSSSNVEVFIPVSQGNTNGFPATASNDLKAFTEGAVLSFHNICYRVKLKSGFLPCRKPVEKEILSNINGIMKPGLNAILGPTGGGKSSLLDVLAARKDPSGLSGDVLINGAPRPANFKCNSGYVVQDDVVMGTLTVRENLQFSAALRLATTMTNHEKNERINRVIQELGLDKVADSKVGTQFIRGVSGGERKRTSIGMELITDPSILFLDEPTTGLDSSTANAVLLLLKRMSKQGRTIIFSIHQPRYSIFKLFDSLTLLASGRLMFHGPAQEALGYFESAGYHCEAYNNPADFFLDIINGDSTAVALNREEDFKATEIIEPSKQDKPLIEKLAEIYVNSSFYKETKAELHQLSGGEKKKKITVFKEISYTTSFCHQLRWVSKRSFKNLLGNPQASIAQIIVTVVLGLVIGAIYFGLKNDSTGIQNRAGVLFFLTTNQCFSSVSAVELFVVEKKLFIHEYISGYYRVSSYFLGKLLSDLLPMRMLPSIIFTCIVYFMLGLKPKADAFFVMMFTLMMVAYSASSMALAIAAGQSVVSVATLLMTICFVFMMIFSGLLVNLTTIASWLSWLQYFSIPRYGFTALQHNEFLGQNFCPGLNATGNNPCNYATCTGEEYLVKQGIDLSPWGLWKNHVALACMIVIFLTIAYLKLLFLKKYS
Assay: stimulation of vanadate-sensitive ATPase activity in ABCG2-expressing insect cell membranes; also PhA efflux inhibition in HCT-116/BCRP cells
Assay type: biochemical

COc1ccc(-c2c3occc3c(OC[C@H]3OC3(C)C)c3ccc(=O)oc23)cc1OC [PFC, (R)-9-(3,4-dimethoxyphenyl)-4-((3,3-dimethyloxiran-2-yl)methoxy)-7H-furo [3,2-g]chromen-7-one]
EC50: 3.8 ± 0.64 nM
